In PMC11134387, “Cancer-Stem-Cell Phenotype-Guided Discovery of a Microbiota-Inspired Synthetic Compound Targeting NPM1 for Leukemia” (JACS Au, 2024):
pIC50: −log10 of the molar value.

Columns and labels:
[1] = test system: primary HSCs from patients with NPM1 C+ AML; test: CD34+ liquid HSC short-term culture, NPM1 C+ AML patients; format: cell-based; details: Homo sapiens, n = 4
Description: Considering the inhibitory capacity of UCM-13369 on AML cell lines (shown in Figure 3A), the therapeutic potential was assessed in primary CD34+ cells from AML patients. Two ex vivo models were used from AML patients and healthy donors: CD34+ liquid HSC (hematopoietic stem cell) culture as a short-term model and CFU-E (colony-forming unit–erythroid) as a midterm model.
The test compound was diluted in PBS. […]
quantitative real-time PCR (qPCR), or were sorted using a FACS BD INFL UX cell sorter (BD Biosciences, Franklin Lakes, NJ, USA). All cells were maintained at 37 °C in a humidified incubator in an atmosphere of 5% CO2, and passaged every 2–3 days. […]
Primary cells. […] After 72 h in maintenance cells were ready to start the assays. […]
Colonospheres, mamospheres and colony formation unit assays. […] After 10 days (mamospheres and colonospheres) and 14 days (CFU-E) we quantified t he number of colonies/spheres and number of cell s (CFU-E) by […]
RNA and DNA extraction and quantitative PCR (qPCR). […] Gene expression was studied from the extracted RNA, processed into cDNA to quantify the expression of NPM1 and c-MYC. […]
The relative amount of targets was determined by the comparative Ct method.
Western blot. […] Lysates wer e cl ear ed by centrifugation (14,000g, 4 °C, 30 min), protein concentration determined by Bradford

FBXW7 = test: Western blot of FBXW7 in OCI-AML3 cells; format: cell-based
Description: We next studied the impact of UCM-13369 in the genes and/or expression levels of NPM1 and NPM1 C+ pathway components (Figure 4A), including the positive regulation of c-Myc[34] and the negative regulation of FBXW7 and the pro-apoptotic CASP8.[35] […] The inhibition of NPM1 was also observed in MOLM13 cells expressing WT NPM1 (Figure S1B).
Assay (Bio-Rad Labo rato ries, Hercules, CA, USA) and 20 µg of total protein s was loaded onto 10% SDS-PAGE gels followed by transfer onto a nitrocellulose membrane. Blots were incubated with primary antibodies α-NPM1 (Abcam ), α-M YC (Cel l Signaling), α-FBXW7 ( Abcam) and an ti-mouse or anti-rabbit secondary antibodies (BD). An antibody to β-actin was used to check for equivalent protei n loading. Membranes were developed by enhanced chemiluminescenc e (Clarity Weste rn ECL substrate; Bio-Rad Laboratories ). […]
Proteomic analysis. A supplementary table (Excel file) includes all the data of the proteomic analysis, showing all the proteins identified, not only those ablated in the treated population, but also those found with different expression levels in both populations under study, and even those that were not detected in the control population but were detected in the treated population. Follows the image of a Venn diagram showing the number of proteins detected in each of the pop ulations and the proteins that converg e […]

## COc1ccc(C2Cc3[nH]c4ccccc4c3C(CCNCC3CC3)C2N)cc1 (centres unmarked) [4b, 4-{2-[(Cyclopropylmethyl)amino]ethyl}-2-(4-methoxyphenyl)-2,3,4,9-tetrahydro-1H-carbazol-3-amine]
[1]
  pIC50: 5.76
FBXW7
  FBXW7 levels (in words): upregulated
